Test results as given in patent US11498920B2, “4-(1H-imidazol-5-yl)-1H-pyrrolo[2, 3-b] pyridines for use in the treatment of leukaemias, lymphomas and solid tumors” (MASARYKOVA UNIVERZITA, priority 2018, dated 2022).

Columns and labels:
[1] = test system: Maver-1 cells (mantle cell lymphoma); test: Cytotoxicity, TMRE flow cytometry viability, Maver-1 cells (Example II.1); type: cell-based; details: Homo sapiens, Maver1, 24 hours, TMRE positive cells normalized to control, ratio to PF670462, <1 = higher cytotoxicity than PF670462, read-out: Viability of cells, Compound of formula I (100 μM), relative to PF670462 (100 μM), Maver-1 cells (mantle cell lymphoma)
Experimental: (§1) The leukemia and lymphoma-derived cell lines [MEC-1 cell line (derived from chronic lymphocytic leukemia—CLL), Nalm-16 (acute lymphocytic leukemia—ALL), K562 (chronic myeloid leukemia—CML), HL-60 (acute myeloid leukemia—AML), Maver-1 and Mino (mantle cell lymphoma—MCL), BL-41 (Burkitt lymphoma—BL), WSU-NHL (follicular lymphoma—FL), SUDHL (diffuse large B-cell lymphoma—DLBCL)], primary CLL cells and nonmalignant control primary cells were cultured in suspension in flasks under the following conditions: RPMI 1640 medium (Hyclone) supplemented with 10% fetal bovine serum (FBS, Gibco) and 1% penicillin/streptomycin (Life Technologies), 37° C., 5% CO2 and 95% relative humidity, with optimal culture cell density 5×10^6 cells/mL in case of primary cells and 0.5-1×10^6 cells/mL in case of cell lines. The adherent cell lines [A375 (derived from malignant melanoma), MDA-MB-231 and MCF-7 (breast cancer), MIA-PA-CA and PANC1 (pancreatic cancer), PC3 (prostate cancer), OVCAR4 (ovarian cancer) and HEPG2 (hepatocellular carcinoma)] were cultured on plates under the same conditions using RPMI1640 or DMEM medium (Gibco) according to instructions provided by the distributor (DSMZ/ATCC).
(§2) Cytotoxicity of compounds of formula I was tested in two models representative for leukemia (primary CLL cells) and lymphoma (Maver-1 cells). The primary CLL cells and Maver-1 cells (MCL-derived) were incubated with inhibitors at 100 μM concentration or corresponding amount of solvent (DMSO, Sigma Aldrich) as 0.1×10^6 cells/200 μl per well in a 96-well plate. Experiments were performed in technical duplicates. Viability of cells was assessed after 6 hours in case of primary CLL cells and after 24 hours in case of Maver-1 cells.
(§3) Apoptosis-induced reduction of mitochondrial potential is detected as lower TMRE fluorescence. […] Relative values are presented, showing ratio to the effect of PF670462 (as the closest prior art). Relative value <1 indicates a higher cytotoxicity than PF670462.

primary CLL cells = test: Cytotoxicity, TMRE flow cytometry viability, primary CLL cells (Example II.1); type: cell-based; details: Homo sapiens, CLL cell, 6 hours, TMRE positive cells normalized to control, ratio to PF670462, <1 = higher cytotoxicity than PF670462, read-out: Viability of cells, Compound of formula I (100 μM), relative to PF670462 (100 μM), CLL primary cells
Experimental: as §1, §2, §3

Fc1ccc(-c2ncn(Cc3ccccc3)c2-c2ccnc3[nH]ccc23)cc1F [Preparative Example 179, 4-(1-benzyl-4-(3,4-difluorophenyl)-1H-imidazol-5-yl)-1H-pyrrolo[2,3-b]pyridine]
viability at 100 µM [1]: 0%
viability at 100 µM (primary CLL cells): 1%

Fc1ccc(-c2ncn(C3CCCCC3)c2-c2ccnc3[nH]cc(Cl)c23)cc1 [Preparative Example 144, 3-chloro-4-(1-cyclohexyl-4-(4-fluorophenyl)-1H-imidazol-5-yl)-1H-pyrrolo[2,3-b]pyridine]
viability at 100 µM [1]: 1%
viability at 100 µM (primary CLL cells): 36%

Fc1ccc(-c2ncn(CC3CNCCO3)c2-c2ccnc3[nH]ccc23)cc1 (stereo not drawn) [Preparative Example 114, 2-((4-(4-fluorophenyl)-5-(1H-pyrrolo[2,3-b]pyridin-4-yl)-1H-imidazol-1-yl)methyl)morpholine]
viability at 100 µM [1]: 27%
viability at 100 µM (primary CLL cells): 78%

COC(=O)[C@H]1CC[C@@H](n2cnc(-c3ccc(F)cc3)c2-c2ccnc3[nH]ccc23)CC1 [Preparative Example 33, Methyl cis-4-(4-(4-fluorophenyl)-5-(1H-pyrrolo[2,3-b]pyridin-4-yl)-1H-imidazol-1-yl)cyclohexane-1-carboxylate]
viability at 100 µM [1]: 12%
viability at 100 µM (primary CLL cells): 63%

Fc1ccc(-c2ncn(C3CCCCC3)c2-c2ccnc3[nH]ccc23)c(F)c1 [Preparative Example 4, 4-(1-cyclohexyl-4-(2,4-difluorophenyl)-1H-imidazol-5-yl)-1H-pyrrolo[2,3-b]pyridine]
viability at 100 µM [1]: 21%
viability at 100 µM (primary CLL cells): 21%

CN(C)CCS(=O)(=O)N[C@H]1CC[C@@H](n2cnc(-c3ccc(F)cc3)c2-c2ccnc3[nH]ccc23)CC1 [Preparative Example 98, 2-(dimethylamino)-N-((1R,4s)-4-(4-(4-fluorophenyl)-5-(1H-pyrrolo[2,3-b]pyridin-4-yl)-1H-imidazol-1-yl)cyclohexyl)ethane-1-sulfonamide]
viability at 100 µM [1]: 3%
viability at 100 µM (primary CLL cells): 16%

Fc1ccc(-c2ncn(-c3cccnc3)c2-c2ccnc3[nH]ccc23)cc1 [Preparative Example 50, 4-(4-(4-fluorophenyl)-1-(pyridin-3-yl)-1H-imidazol-5-yl)-1H-pyrrolo[2,3-b]pyridine]
viability at 100 µM [1]: 48%
viability at 100 µM (primary CLL cells): 63%

CS(=O)(=O)N1CCC(n2cnc(-c3ccc(F)cc3)c2-c2ccnc3[nH]ccc23)CC1 [Preparative Example 69]
viability at 100 µM [1]: 85%
viability at 100 µM (primary CLL cells): 84%

Fc1ccc(-c2nc(Br)n(C3CCCCC3)c2-c2ccnc3[nH]ccc23)cc1 [Preparative Example 135, 4-(2-bromo-1-cyclohexyl-4-(4-fluorophenyl)-1H-imidazol-5-yl)-1H-pyrrolo[2,3-b]pyridine]
viability at 100 µM [1]: 0%
viability at 100 µM (primary CLL cells): 9%

COCc1cc2c(-c3c(-c4ccc(F)cc4)ncn3C3CCCCC3)ccnc2[nH]1 [Preparative Example 60, 4-(1-cyclohexyl-4-(4-fluorophenyl)-1H-imidazol-5-yl)-2-(methoxymethyl)-1H-pyrrolo[2,3-b]pyridine]
viability at 100 µM [1]: 84%
viability at 100 µM (primary CLL cells): 93%

CN(C)[C@H]1CC[C@@H](n2cnc(-c3ccc(F)cc3)c2-c2ccnc3[nH]ccc23)CC1 [Preparative Example 90]
viability at 100 µM [1]: 52%
viability at 100 µM (primary CLL cells): 23%

Clc1ccc(-c2ncn(C3CCCCC3)c2-c2ccnc3[nH]ccc23)c(Cl)c1 [Preparative Example 7]
viability at 100 µM [1]: 84%
viability at 100 µM (primary CLL cells): 34%

OCc1cc2c(-c3c(-c4ccc(F)cc4)ncn3C3CCCCC3)ccnc2[nH]1 [Preparative Example 56, (4-(1-cyclohexyl-4-(4-fluorophenyl)-1H-imidazol-5-yl)-1H-pyrrolo[2,3-b]pyridin-2-yl)methanol]
viability at 100 µM [1]: 79%
viability at 100 µM (primary CLL cells): 67%

Clc1ccc(-c2ncn(C3CCCCC3)c2-c2ccnc3[nH]ccc23)cc1 [Preparative Example 9, 4-(4-(4-chlorophenyl)-1-cyclohexyl-1H-imidazol-5-yl)-1H-pyrrolo[2,3-b]pyridine]
viability at 100 µM [1]: 30%
viability at 100 µM (primary CLL cells): 50%

Fc1cccc(-c2ncn(C3CCCCC3)c2-c2ccnc3[nH]ccc23)c1 [Preparative Example 1, 4-(1-cyclohexyl-4-(3-fluorophenyl)-1H-imidazol-5-yl)-1H-pyrrolo[2,3-b]pyridine]
viability at 100 µM [1]: 6%
viability at 100 µM (primary CLL cells): 18%

Fc1ccc(-c2ncn(CCc3ccccc3)c2-c2ccnc3[nH]ccc23)cc1 [Preparative Example 87, 4-(4-(4-fluorophenyl)-1-phenethyl-1H-imidazol-5-yl)-1H-pyrrolo[2,3-b]pyridine]
viability at 100 µM [1]: 3%
viability at 100 µM (primary CLL cells): 10%

Fc1ccc(-c2ncn(Cc3ccc(OC(F)(F)F)cc3)c2-c2ccnc3[nH]ccc23)cc1 [Preparative Example 85]
viability at 100 µM [1]: 4%
viability at 100 µM (primary CLL cells): 1%

OCc1nc(-c2ccc(F)cc2)c(-c2ccnc3[nH]ccc23)n1C1CCCCC1 [Preparative Example 166, (1-cyclohexyl-4-(4-fluorophenyl)-5-(1H-pyrrolo[2,3-b]pyridin-4-yl)-1H-imidazol-2-yl)methanol]
viability at 100 µM [1]: 4%
viability at 100 µM (primary CLL cells): 7%

CC(C)(C)OC(=O)N1CCC(n2cnc(-c3ccc(F)cc3)c2-c2ccnc3[nH]ccc23)CC1 [Preparative Example 11, tert-butyl-4-(4-(4-fluorophenyl)-5-(1H-pyrrolo[2,3-b]pyridin-4-yl)-1H-imidazol-1-yl)piperidine-1-carboxylate]
viability at 100 µM [1]: 6%
viability at 100 µM (primary CLL cells): 30%

Fc1ccc(-c2ncn(CC3CCCCC3)c2-c2ccnc3[nH]ccc23)cc1 [Preparative Example 88, 4-(1-(cyclohexylmethyl)-4-(4-fluorophenyl)-1H-imidazol-5-yl)-1H-pyrrolo[2,3-b]pyridine]
viability at 100 µM [1]: 5%
viability at 100 µM (primary CLL cells): 15%

CC1(C)CC(Cn2cnc(-c3ccc(F)cc3)c2-c2ccnc3[nH]ccc23)C1 [Preparative Example 29, 4-(1-((3,3-dimethylcyclobutyl)methyl)-4-(4-fluorophenyl)-1H-imidazol-5-yl)-1H-pyrrolo[2,3-b]pyridine]
viability at 100 µM [1]: 3%
viability at 100 µM (primary CLL cells): 21%

Fc1ccc(-c2ncn(Cc3ccccc3)c2-c2ccnc3[nH]ccc23)cc1 [Preparative Example 22, 4-(1-benzyl-4-(4-fluorophenyl)-1H-imidazol-5-yl)-1H-pyrrolo[2,3-b]pyridine]
viability at 100 µM [1]: 27%
viability at 100 µM (primary CLL cells): 17%

CSc1nc(-c2ccc(F)cc2)c(-c2ccnc3[nH]ccc23)n1C1CCCCC1 [Preparative Example 136, 4-(1-cyclohexyl-4-(4-fluorophenyl)-2-(methylthio)-1H-imidazol-5-yl)-1H-pyrrolo[2,3-b]pyridine]
viability at 100 µM [1]: 0%
viability at 100 µM (primary CLL cells): 47%

Fc1ccc(-c2ncn([C@H]3CC[C@H](C(F)(F)F)CC3)c2-c2ccnc3[nH]ccc23)cc1 [Preparative Example 36]
viability at 100 µM [1]: 1%
viability at 100 µM (primary CLL cells): 68%

Clc1cccc(-c2ncn(C3CCCCC3)c2-c2ccnc3[nH]ccc23)c1 [Preparative Example 5, 4-(4-(3-chlorophenyl)-1-cyclohexyl-1H-imidazol-5-yl)-1H-pyrrolo[2,3-b]pyridine]
viability at 100 µM [1]: 54%
viability at 100 µM (primary CLL cells): 24%

CN1CCC(n2cnc(-c3ccc(F)cc3)c2-c2ccnc3[nH]ccc23)CC1 [Preparative Example 14, 4-(4-(4-fluorophenyl)-1-(1-methylpiperidin-4-yl)-1H-imidazol-5-yl)-1H-pyrrolo[2,3-b]pyridine]
viability at 100 µM [1]: 70%
viability at 100 µM (primary CLL cells): 77%

Fc1ccccc1-c1ncn(C2CCCCC2)c1-c1ccnc2[nH]ccc12 [Preparative Example 2, 4-(1-cyclohexyl-4-(2-fluorophenyl)-1H-imidazol-5-yl)-1H-pyrrolo[2,3-b]pyridine]
viability at 100 µM [1]: 32%
viability at 100 µM (primary CLL cells): 37%

Cc1nc(Cn2cnc(-c3ccc(F)cc3)c2-c2ccnc3[nH]ccc23)cs1 [Preparative Example 108, 4-((4-(4-fluorophenyl)-5-(1H-pyrrolo[2,3-b]pyridin-4-yl)-1H-imidazol-1-yl)methyl)-2-methylthiazole]
viability at 100 µM [1]: 82%
viability at 100 µM (primary CLL cells): 74%

OC1(Cn2cnc(-c3ccc(F)cc3)c2-c2ccnc3[nH]ccc23)CCC1 [Preparative Example 91, 1-((4-(4-fluorophenyl)-5-(1H-pyrrolo[2,3-b]pyridin-4-yl)-1H-imidazol-1-yl)methyl)cyclobutan-1-ol]
viability at 100 µM [1]: 69%
